{"source": "BindingDB's records for doi:10.1021/acs.jmedchem.7b00484", "about": "(University of Strathclyde, 2017)", "target": "T1, Inhibitor of nuclear factor kappa-B kinase subunit beta (Homo sapiens, UniProt O14920)", "T1 sequence (O14920 whole entry)": "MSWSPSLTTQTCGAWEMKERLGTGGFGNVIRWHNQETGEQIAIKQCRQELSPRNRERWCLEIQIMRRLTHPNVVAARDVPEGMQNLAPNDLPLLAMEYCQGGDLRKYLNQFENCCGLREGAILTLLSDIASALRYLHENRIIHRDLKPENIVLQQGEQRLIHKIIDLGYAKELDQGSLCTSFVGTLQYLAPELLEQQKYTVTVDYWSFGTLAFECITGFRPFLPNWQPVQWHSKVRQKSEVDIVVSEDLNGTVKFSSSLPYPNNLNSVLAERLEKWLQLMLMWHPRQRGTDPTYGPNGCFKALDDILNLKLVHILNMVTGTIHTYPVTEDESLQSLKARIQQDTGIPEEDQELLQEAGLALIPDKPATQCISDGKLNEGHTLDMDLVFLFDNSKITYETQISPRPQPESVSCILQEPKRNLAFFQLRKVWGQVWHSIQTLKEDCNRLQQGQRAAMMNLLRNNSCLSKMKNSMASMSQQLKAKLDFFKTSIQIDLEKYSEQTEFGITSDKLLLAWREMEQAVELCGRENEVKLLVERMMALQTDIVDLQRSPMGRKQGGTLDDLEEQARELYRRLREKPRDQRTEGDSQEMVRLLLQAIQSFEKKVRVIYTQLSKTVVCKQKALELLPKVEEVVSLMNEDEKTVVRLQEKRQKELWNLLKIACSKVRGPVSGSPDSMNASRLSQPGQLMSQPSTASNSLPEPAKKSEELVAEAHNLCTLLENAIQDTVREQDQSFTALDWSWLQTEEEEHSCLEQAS", "assay": "ChEBML_1690031", "experimental": "Inhibition of recombinant full length human IKKbeta expressed in baculovirus infected sf9 insect cells using biotinylated IkBalpha as substrate after 60 mins by DELFIA", "data": [{"smiles": "N#Cc1c[nH]c2nc(N)nc(N[C@@H]3CC[C@@H](O)[C@H]3O)c12", "values": [{"measurement": "Ki", "result": "> 30", "unit": "µM"}]}]}
